ChEMBL document CHEMBL1149008, “Antitumor agents, 81. Justicidin-A and diphyllin, two cytotoxic principles from Justicia procumbens” (1986)
≈ marks a conversion by molar mass, not a printed value.

System: KB
Experiment: Cytotoxicity against human KB cells
Type: functional
Details: read-out: ED50 (the source's name)

Row | SMILES | EC50 [µg/mL]
1 | COc1cc2c(OC)c3c(c(-c4ccc5c(c4)OCO5)c2cc1OC)C(=O)OC3 [JUSTICIDIN A] | < 1
2 | COc1cc2c(OC)c3c(c(-c4ccc5c(c4)OCO5)c2cc1OC)COC3=O [NEOJUSTICIN B] | > 10.5
3 | COc1cc2c(O)c3c(c(-c4ccc5c(c4)OCO5)c2cc1OC)C(=O)OC3 [DIPHYLLIN] | < 1
4 | COc1c2c(c(-c3ccc4c(c3)OCO4)c3cc4c(cc13)OCO4)COC2=O [NEOJUSTICIN A] | 9 (≈ 23.8 µM)
5 | O=C1OCc2c1cc1cc3c(cc1c2-c1ccc2c(c1)OCO2)OCO3 | > 10.5
